Where a name gives a salt, the structure may show the parent alone.
Molecular target: T1, h5-HT4b (Homo sapiens, UniProt Q13639)
T1 construct: expressed in transfected cells; host or cells: HEK 293 (clone 9), membrane preparation
T1 sequence (Q13639 whole entry): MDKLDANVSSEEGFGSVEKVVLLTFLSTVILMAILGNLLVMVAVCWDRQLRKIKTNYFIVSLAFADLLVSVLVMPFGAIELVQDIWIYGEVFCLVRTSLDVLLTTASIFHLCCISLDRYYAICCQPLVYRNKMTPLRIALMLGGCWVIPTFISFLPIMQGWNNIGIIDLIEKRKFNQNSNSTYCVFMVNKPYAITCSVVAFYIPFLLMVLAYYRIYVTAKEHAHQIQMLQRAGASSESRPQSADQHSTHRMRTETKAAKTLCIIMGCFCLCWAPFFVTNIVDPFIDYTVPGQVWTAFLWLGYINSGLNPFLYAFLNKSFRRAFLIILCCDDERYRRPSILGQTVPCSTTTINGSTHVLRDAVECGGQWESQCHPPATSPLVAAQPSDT
Experiment: 5HT4 antagonism: [3H]GR113808 binding to membranes of h5-HT4b-HEK 293 clone 9 cells
Conditions: [3H]GR113808 0.1 nM, h5-HT4b-HEK 293 membranes, 30 min at 25° C.
Experimental: h5-HT4b-HEK 293 clone 9 cells were cultured in 150 mm Petri dishes and washed twice with cold PBS. The cells were then scraped from the plates and suspended in 50 mM Tris-HCl buffer, pH 7.4 and harvested by centrifugation at 23,500 rpm for 10 minutes. The pellet was resuspended in 5 mM Tris-HCl, pH 7.4 and homogenized with an Ultra Turrax homogenizer. The membranes were collected by centrifugation at 30,000 rpm for 20 min, resuspended in 50 mM Tris-HCl pH 7.4 and stored at −80° C. For the experiment, assay mixtures (0.5 ml) contained 50 μl of the tritiated ligand (5-HT4 antagonist [^3H]GR113808 0.1 nM) and 0.4 ml membrane preparation (15 μg protein/ml). 50 μl of 10% DMSO was added for total binding. 50 μl of 1 μM of (+)-trans-(1-butyl-3-hydroxy4-piperidinyl)methyl 8-amino-7-chloro-2,3-dihydro-1,4-benzodioxin-5-carboxylate (a proprietary 5HT4 agonist of Janssen Pharmaceutica) was added for determination of non-specific binding.
The [^3H]GR113808 assay buffer was 50 mM HEPES-NaOH, pH 7.4. The mixtures were incubated for 30 min at 25° C. The incubation was terminated by filtration over a Unifilter 96 GF/B presoaked in 0.1% polyethylenimine, followed by six washing steps with 50 mM HEPES-NaOH, pH 7.4.
`CCCCN1CC[C@@H](CNC(=O)c2ccc(C)c3c2OCCCO3)[C@H](O)C1` [compound 1] gave an IC50 of 1.32 nM. With `COCCCN1CC[C@@H](CNC(=O)c2ccc(C)c3c2OCCCO3)[C@H](O)C1` [compound 2] the IC50 was 2.75 nM. In the case of `CCCCN1CC[C@@H](CNC(=O)c2cc(Cl)c(OC)c3c2OCCO3)[C@H](O)C1` [compound 7], the IC50 is reported as 1.74 nM. In the case of `COCCCN1CC[C@@H](CNC(=O)c2cc(Cl)c(OC)c3c2OCCO3)[C@H](OC)C1` [compound 76], the IC50 is reported as 21.9 nM. `CCCCN1CC[C@@H](CNC(=O)c2cc(Cl)c(OC)c3c2OCCO3)[C@H](OC)C1` [compound 77] showed an IC50 of 8.91 nM. `CNCCCN1CC[C@@H](CNC(=O)c2cc(Cl)c(OC)c3c2OCCO3)[C@H](OC)C1` [compound 78] gave an IC50 of 174 nM. For `COc1c(Cl)cc(C(=O)NC[C@@H]2CCN(CCn3ccn(C(C)C)c3=O)C[C@H]2OC)c2c1OCCCO2` [compound 79], the IC50 was 229 nM. Compound `CNCCCN1CC[C@@H](CNC(=O)c2cc(Cl)c(Br)c3c2OCCCO3)[C@H](O)C1` [compound 80] has an IC50 of 6.31 nM. `CCCCN1CC[C@@H](CNC(=O)c2cc(Cl)c(Cl)c3c2OCCCO3)[C@H](OC)C1` [compound 81] gave an IC50 of 2.09 nM. In the case of `CO[C@@H]1CN(CCn2ccn(C(C)C)c2=O)CC[C@H]1CNC(=O)c1cc(Cl)c(Cl)c2c1OCCCO2` [compound 82], the IC50 is reported as 8.32 nM. Work on `CNCCN1CC[C@@H](CNC(=O)c2cc(Cl)c(OC)c3c2OCCO3)[C@H](O)C1` [compound 83] yielded an IC50 of 64.6 nM. `CNCCN1CC[C@@H](CNC(=O)c2cc(Cl)c(Cl)c3c2OCCCO3)[C@H](OC)C1` [compound 84] gave an IC50 of 5.25 nM. Compound `CNCCCN1CC[C@@H](CNC(=O)c2cc(Cl)c(Cl)c3c2OCCCO3)[C@H](O)C1` [compound 85] has an IC50 of 2.69 nM. Work on `CNCCCCN1CC[C@@H](CNC(=O)c2cc(Cl)c(Cl)c3c2OCCCO3)[C@H](OC)C1` [compound 86] yielded an IC50 of 0.912 nM. `COc1c(Cl)cc(C(=O)NC[C@@H]2CCN(CCC3OCCO3)C[C@H]2OC)c2c1OCCO2` [compound 87] showed an IC50 of 30.9 nM. In the case of `O=C(NC[C@@H]1CCN(CCC2OCCO2)C[C@H]1O)c1cc(Cl)c(Cl)c2c1OCCCO2` [compound 88], the IC50 is reported as 2.24 nM. In the case of `N#CCCCN1CC[C@@H](CNC(=O)c2cc(Cl)c(Cl)c3c2OCCCO3)[C@H](O)C1` [compound 89], the IC50 is reported as 2.09 nM. `CNCCCCN1CC[C@@H](CNC(=O)c2cc(Cl)c(Cl)c3c2OCCCO3)[C@H](O)C1` [compound 90] showed an IC50 of 2.04 nM. Compound `CC(C)n1ccn(CCN2CC[C@@H](CNC(=O)c3cc(Cl)c(Br)c4c3OCCCO4)[C@H](O)C2)c1=O` [compound 91] has an IC50 of 13.5 nM. Compound `CNCCN1CC[C@@H](CNC(=O)c2cc(Cl)c(OC)c3c2OCCO3)[C@H](OC)C1` [compound 92] has an IC50 of 490 nM. With `Cc1ccc(C(=O)NC[C@@H]2CCN(CCCC#N)C[C@H]2O)c2c1OCCCO2` [compound 94] the IC50 was 1.86 nM. `Cc1ccc(C(=O)NC[C@@H]2CCN(CC3CCCO3)C[C@H]2O)c2c1OCCCO2` (stereo partly shown) [compound 95] showed an IC50 of 1.02 nM. Compound `Cc1ccc(C(=O)NC[C@@H]2CCN(CCCNS(C)(=O)=O)C[C@H]2O)c2c1OCCCO2` [compound 96] has an IC50 of 0.977 nM. With `COc1ccc(C(=O)NC[C@@H]2CCNC[C@H]2O)c2c1OCCCO2` [compound 97] the IC50 was 56.2 nM. `COCCCN1CC[C@@H](CNC(=O)c2ccc(OC)c3c2OCCCO3)[C@H](O)C1` [compound 98] gave an IC50 of 2.63 nM. In the case of `COc1ccc(C(=O)NC[C@@H]2CCN(CCCO)C[C@H]2O)c2c1OCCCO2` [compound 99], the IC50 is reported as 7.24 nM. Work on `CCCCN1CC[C@@H](CNC(=O)c2ccc(OC)c3c2OCCCO3)[C@H](O)C1` [compound 100] yielded an IC50 of 0.331 nM. Compound `COc1ccc(C(=O)NC[C@@H]2CCN(CCC3OCCO3)C[C@H]2O)c2c1OCCCO2` [compound 101] has an IC50 of 2.45 nM. Work on `CNCCCCN1CC[C@@H](CNC(=O)c2ccc(OC)c3c2OCCCO3)[C@H](O)C1` [compound 102] yielded an IC50 of 6.46 nM. For `COc1ccc(C(=O)NC[C@@H]2CCN(CC3CCCO3)C[C@H]2O)c2c1OCCCO2` (stereo partly shown) [compound 103], the IC50 was 8.71 nM. Work on `Cc1ccc(C(=O)NC[C@@H]2CCNC[C@H]2O)c2c1OCCCO2` [compound 104] yielded an IC50 of 28.2 nM. `Cc1ccc(C(=O)NC[C@@H]2CCN(CCCOc3ccc(S(N)(=O)=O)cc3)C[C@H]2O)c2c1OCCCO2` [compound 105] gave an IC50 of 0.603 nM. Compound `Cc1ccc(C(=O)NC[C@@H]2CCN(CCCCOc3ccc(S(N)(=O)=O)cc3)C[C@H]2O)c2c1OCCCO2` [compound 106] has an IC50 of 0.813 nM. `Cc1ccc(C(=O)NC[C@@H]2CCN(CCOc3ccc(S(N)(=O)=O)cc3)C[C@H]2O)c2c1OCCCO2` [compound 108] gave an IC50 of 1.78 nM. For `COCCCN1CC[C@@H](CNC(=O)c2ccc(OC)c3c2OCCCO3)[C@H](O)C1` [compound 110], the IC50 was 3.09 nM. Compound `CCN1CC[C@@H](CNC(=O)c2ccc(C)c3c2OCCCO3)[C@H](O)C1` [compound 111] has an IC50 of 0.871 nM. For `COc1ccc(C(=O)NC[C@@H]2CCN(CCCC#N)C[C@H]2OC)c2c1OCCCO2` [compound 112], the IC50 was 72.4 nM. Work on `COc1ccc(C(=O)NC[C@@H]2CCN(CCCO)C[C@H]2O)c2c1OCCCO2` [compound 113] yielded an IC50 of 3.24 nM. `CCCCN1CC[C@@H](CNC(=O)c2ccc(OC)c3c2OCCO3)[C@H](O)C1` [compound 114] showed an IC50 of 2.63 nM. In the case of `COCCCN1CC[C@@H](CNC(=O)c2ccc(OC)c3c2OCCO3)[C@H](O)C1` [compound 115], the IC50 is reported as 11.7 nM. `COc1ccc(C(=O)NC[C@@H]2CCN(CCCO)C[C@H]2O)c2c1OCCO2` [compound 116] gave an IC50 of 5.25 nM. `CNCCCCN1CC[C@@H](CNC(=O)c2ccc(OC)c3c2OCCO3)[C@H](O)C1` [compound 118] showed an IC50 of 6.76 nM. With `COc1ccc(C(=O)NC[C@@H]2CCN(CCCO)C[C@H]2OC)c2c1OCCO2` [compound 119] the IC50 was 20.4 nM. With `CCN1CC[C@@H](CNC(=O)c2ccc(OC)c3c2OCCCO3)[C@H](OC)C1` [compound 120] the IC50 was 28.2 nM. Compound `COc1ccc(C(=O)NC[C@@H]2CCN(CCCCO)C[C@H]2O)c2c1OCCCO2` [compound 121] has an IC50 of 4.57 nM. With `COc1ccc(C(=O)NC[C@@H]2CCN(CCCCC(N)=O)C[C@H]2O)c2c1OCCCO2` [compound 122] the IC50 was 4.07 nM. Compound `CCCCN1CC[C@@H](CNC(=O)c2ccc(OC)c3c2OCCCO3)[C@H](OC)C1` [compound 123] has an IC50 of 11 nM. `COCCCN1CC[C@@H](CNC(=O)c2ccc(OC)c3c2OCCCO3)[C@H](OC)C1` [compound 124] showed an IC50 of 24.5 nM. `COc1ccc(C(=O)NC[C@@H]2CCN(CCCCC(N)=O)C[C@H]2O)c2c1OCCO2` [compound 125] gave an IC50 of 3.24 nM. Work on `COc1ccc(C(=O)NC[C@@H]2CCN(CCCS(C)(=O)=O)C[C@H]2O)c2c1OCCCO2` [compound 126] yielded an IC50 of 7.94 nM. `COc1ccc(C(=O)NC[C@@H]2CCN(CCOCCO)C[C@H]2O)c2c1OCCCO2` [compound 127] gave an IC50 of 13.8 nM. In the case of `COc1ccc(C(=O)NC[C@@H]2CCN(CCCC(N)=O)C[C@H]2O)c2c1OCCCO2` [compound 128], the IC50 is reported as 7.24 nM. `COCCCCN1CC[C@@H](CNC(=O)c2ccc(OC)c3c2OCCCO3)[C@H](O)C1` [compound 129] gave an IC50 of 3.39 nM. `COc1ccc(C(=O)NC[C@@H]2CCN(CCCCNc3nccnc3C)C[C@H]2O)c2c1OCCCO2` [compound 130] showed an IC50 of 3.89 nM. `CCCCN1CC[C@@H](CNC(=O)c2ccc(F)c3c2OCCCO3)[C@H](O)C1` [compound 131] showed an IC50 of 1 nM. `COCCCN1CC[C@@H](CNC(=O)c2ccc(F)c3c2OCCCO3)[C@H](O)C1` [compound 132] showed an IC50 of 2.24 nM. For `COc1ccc(C(=O)NCC2(O)CCN(CCCC#N)CC2)c2c1OCCCO2` [compound 133], the IC50 was 11.2 nM. In the case of `COc1ccc(C(=O)NC[C@@H]2CCN(CCCNS(C)(=O)=O)C[C@H]2OC)c2c1OCCCO2` [compound 134], the IC50 is reported as 0.912 nM. In the case of `COCCCCN1CCC(O)(CNC(=O)c2ccc(OC)c3c2OCCCO3)CC1` [compound 135], the IC50 is reported as 182 nM. `CCCCN1CCC(O)(CNC(=O)c2ccc(OC)c3c2OCCCO3)CC1` [compound 136] gave an IC50 of 91.2 nM. With `COc1ccc(C(=O)NC[C@H]2CCN(CCCC#N)C[C@H]2O)c2c1OCCCO2` [compound 137] the IC50 was 155 nM. With `COc1ccc(C(=O)NC[C@@H]2CCN(CCCC#N)C[C@H]2O)c2c1OCCO2` [compound 138] the IC50 was 6.17 nM. Work on `COc1ccc(C(=O)NC[C@@H]2CCN(CCCC(N)=O)C[C@H]2O)c2c1OCCO2` [compound 139] yielded an IC50 of 5.89 nM. Work on `CCCCN1CC[C@H](CNC(=O)c2ccc(OC)c3c2OCCCO3)[C@H](O)C1` [compound 141] yielded an IC50 of 214 nM. `COCCCCN1CC[C@H](CNC(=O)c2ccc(OC)c3c2OCCCO3)[C@H](O)C1` [compound 142] gave an IC50 of 162 nM. For `O=C(NC[C@@H]1CCN(CCCCO)C[C@H]1O)c1ccc(F)c2c1OCCCO2` [compound 143], the IC50 was 1.17 nM. `COc1ccc(C(=O)NC[C@H]2CCN(CCCC(N)=O)C[C@H]2O)c2c1OCCCO2` [compound 144] showed an IC50 of 282 nM. `CCOc1ccc(C(=O)NC[C@@H]2CCN(CCCC(N)=O)C[C@H]2O)c2c1OCCCO2` [compound 146] gave an IC50 of 5.89 nM. `COc1ccc(C(=O)NCC2(O)CCN(CCCC(N)=O)CC2)c2c1OCCCO2` [compound 147] showed an IC50 of 501 nM.

System: not given
Experiment: not given
Conditions: not given
Work on `CNCCCCN1CC[C@@H](CNC(=O)c2ccc(C)c3c2OCCCO3)[C@H](O)C1` (as salt: salt) [compound 4] yielded a melting point of 120 °C. In the case of `CCCCN1CC[C@@H](CNC(=O)c2ccc(C)c3c2OCCCO3)[C@H](O)C1` [compound 1], the melting point is reported as 127 °C. Work on `COCCCN1CC[C@@H](CNC(=O)c2ccc(C)c3c2OCCCO3)[C@H](O)C1` [compound 2] yielded a melting point of 109 °C. Compound `CCCCN1CC[C@@H](CNC(=O)c2cc(Cl)c(OC)c3c2OCCO3)[C@H](O)C1` [compound 7] has a melting point of 127 °C.

From patent publication US7635706B2, “5HT4-antagonistic 4-(aminomethyl)-piperidine benzamides” (Janssen Pharmaceutica NV, priority 2003, dated 2009)
